Here are results for 28 compounds from US20170239173A1, “TRANSDERMAL ABSORPTION ENHANCER AND TRANSDERMAL ABSORPTION ENHANCEMENT AID” (ASAHI KASEI KABUSHIKI KAISHA, priority 2014, published 2017).

In general, pKa refers to the negative logarithm of the acid dissociation constant. A word on the Log P: it is the decadic logarithm of the partition coefficient of the neutral form, usually between octanol and water.

Series [1] relates to hairless mouse skin (Laboskin).
The conditions of series [2]: cited from earlier work.
For series [3] the following is noted: cited from earlier work. The source holds these as a separate data set.
Series [4] in a line: Solubility / state of the active ingredient in the preparation (equimolar salt or enhancer). It counts as physicochemical. As to conditions: solubility of MZR in the equimolar salt of the basic compound a) with isostearic acid or linoleic acid.
Series [5] can be described thus: Franz cell test of MZR preparations, artificial skin. As to conditions: equimolar salt of choline with the acidic compound b) as enhancer.
The next series has as its system Yucatan Micropig Skin. As to conditions: Non Patent Literature 1, at maximum; cited from earlier work.
The conditions of series [6]: partition coefficient between water and 1-octanol; cited from earlier work.
For series [7] the following is noted: subcutaneous administration to rats; cited from earlier work.

“And” between values parts separate entries of the source, which are not always exact repeats. Identical values can stand only once. Like-named read-outs stand apart in the source and are kept apart here. A value given as a limit tells only on which side of the number the result lay.

In the case of `COc1cc(C(O)C(=O)O)ccc1O` (stereo not shown) [Vanillylmandelic acid], in series [1], the “Transdermal penetrability of MZR (hairless mouse)” value was “Not penetrated”. In addition, the pKa in series [2] is listed as 3.11. In addition, the Water solubility result in series [3] (H2O) is reported as “H2O: ~50 mg/mL”. Consider `Nc1ncnc2[nH]cnc12` [Adenine], for which the MZR dissolution result in series [4] is reported as “Insoluble”. `O=C(O)/C=C\C(=O)O` [Maleic acid]: the Water solubility in series [3] (25° C.) was 78 g/100 mL (25° C.).

`CC(O)C(=O)O` (racemic) [DL-lactic acid]: in series [5], the “Transdermal penetrability of MZR (artificial skin)” value is recorded as “Penetrated”. As to `O=C(O)CCCC(=O)O` [Glutaric acid], the pKa in series [2] is given as 4.34; in series [2] (second value), 5.42. Further, the Water solubility in series [3] (20° C.) was 430 g/L (20° C.). Besides, the “Transdermal penetrability of MZR (artificial skin)” value in series [5] was “Penetrated”. As for `Nc1nc2c(ncn2COCCO)c(=O)[nH]1` [ACV, acyclovir], the “transdermal penetration amount of ACV for 24 hours” value in the series with Yucatan Micropig Skin is listed as no more than 0.5 μg/cm^2. Take `O=C(O)c1ccccc1` [Benzoic acid]: the “Transdermal penetrability of MZR (artificial skin)” value in series [5] is listed as “Penetrated”.

On to `CC(C)CCCCCCCCCCCCCCC(=O)O` [Isostearic acid], for which the pKa in series [2] was 4.90. Turning to `CCCCCCCCCCCCCC(=O)O` [Myristic acid], the “Transdermal penetrability of MZR (hairless mouse)” value in series [1] was “Penetrated”. Further, in series [2], the pKa is on record as 4.90. Also, the Water solubility in series [3] (at 18° C.) is given as less than 0.1 g/100 mL at. In the case of `C[N+](C)(C)CCO` [choline], in series [1], the “Transdermal penetrability of MZR” value is recorded as “Penetrated”. Besides, the “Log P” value in series [6] is reported as “(LogP = −0.4”.

On to `O=C(O)CCC(=O)O` [Succinic acid], for which the “Transdermal penetrability of MZR (hairless mouse)” value in series [1] is listed as “Not penetrated”. In addition, in series [6], the “Log P” value is “(LogP = −0.6)”. `O=C(O)CO` [Glycolic acid]: in series [5], the “Transdermal penetrability of MZR (artificial skin)” value is recorded as “Penetrated”.

As to `CC(=O)O` [Acetic acid], the “Transdermal penetrability of MZR (hairless mouse)” value in series [1] is reported as “Not penetrated”. For `CC(O)CN(CC(C)O)CC(C)O` (stereo not shown) [TIPA], in series [4], the MZR dissolution entry is on record as “Insoluble”. Same read-out and setting: as for `COP(=O)([O-])OC.Cn1cc[n+](C)c1`, the entry is “Insoluble”. On to `CCCCCCCCCCCCCCCC(=O)O` [Palmitic acid], for which the pKa in series [2] was 4.75. On to `NCCc1c[nH]cn1` [Histamine], for which the MZR dissolution entry in series [4] is recorded as “Dissolved”. In addition, in series [1], the “Transdermal penetrability of MZR” value is “Penetrated”.

With `CCn1cc[n+](C)c1.O=S(=O)([O-])C(F)(F)F`, the MZR dissolution result in series [4] is recorded as “Insoluble”.

With `O=C(O)/C=C/C(=O)O` [Fumaric acid], the Water solubility in series [3] (25° C.) is 0.63 g/100 mL-water. Turning to `CCCCCCCCCCCC(=O)O` [Dodecanoic acid], the “Transdermal penetrability of MZR (hairless mouse)” value in series [1] is on record as “Penetrated”. Besides, the pKa in series [2] is 5.30. Further, the Water solubility in series [3] (20° C.) is on record as 5.5 mg/100 g (20° C.). `CC(O)CNCC(C)O` (stereo not shown) [DIPA]: in series [4], the MZR dissolution result is “Insoluble”. Further, the “Transdermal penetrability of MZR” value in series [1] is given as “Not penetrated”. `CCCCC/C=C\C/C=C\CCCCCCCC(=O)O` [Linoleic acid]: the “Transdermal penetrability of MZR (hairless mouse)” value in series [1] is recorded as “Penetrated”. As for `CCCCCCCCCCCCCCCCCC(=O)O` [Stearic acid], in series [2], the pKa is on record as 4.75. Take `C[N+](C)(C)CCOP(=O)([O-])OC[C@H](O)CO` [αGPC]: the MZR dissolution entry in series [4] is “Insoluble”. For the same compound, the “Transdermal penetrability of MZR” value in series [1] was “Not penetrated”. As to `CCCCCCCC/C=C\CCCCCCCC(=O)O` [Oleic acid], in series [1], the “Transdermal penetrability of MZR (hairless mouse)” value is on record as “Penetrated”. Moreover, the Water solubility result in series [3] (in words) is “negligible”.

For the compound `NC(=O)c1ncn([C@@H]2O[C@H](CO)[C@@H](O)[C@H]2O)c1O` [MZR, mizoribine], the rate of penetration result in series [1] (hairless, mouse) is “approximately 30%”. The “no-observed-adverse-effect level (NOAEL)” value in series [7] was 5 mg/kg. Further, the “Log P” value in series [6] is listed as −1.9. With `N=C(N)N` [Guanidine], the MZR dissolution entry in series [4] is given as “Dissolved”. The “Transdermal penetrability of MZR” value in series [1] is given as “Penetrated”.

In the case of `NCCCC[C@H](N[C@@H](CCc1ccccc1)C(=O)O)C(=O)N1CCC[C@H]1C(=O)O` [lisinopril], the “Log P” value in series [6] was −2.9 and −3.0.
